This assay addresses Vasopressin V2 (Rattus norvegicus, UniProt Q00788). The experiment in a line: Vasopressin V2 agonist effects in normal conscious water-loaded rats. In kind it is in vivo. Also on record: from tissue; host or cells: whole living Sprague-Dawley rat; the receptor is the animal's own (renal, by own knowledge). Particulars: Sprague-Dawley (CD) rats; for Osmolality (% Increase): change in osmolality as percent of control; for Urine Volume (% decrease): vs. control. From the text:
Vasopressin V2 Agonist Effects of Test Compounds in Normal Conscious Water-loaded Rats
Male or female normotensive Sprague-Dawley rats (Charles River Laboratories, Inc., Kingston, N.Y.) of 350-500 g body weight were supplied with standard rodent diet (Purina Rodent Lab. Chow 5001) and water ad libitum. On the day of test, rats were placed individually into metabolic cages equipped with devices to separate the feces from the urine and containers for collection of urine. […] The vehicle used was 20% dimethylsulfoxide (DMSO) in 2.5% preboiled corn starch. Thirty minutes after dosing the test compound, rats were gavaged with water at 30 ml/kg into the stomach using a feeding needle. During the test, rats were not provided with water or food. Urine was collected for four hours after dosing of the test compound. At the end of four hours, urine volume was measured. Urinary osmolality was determined using a Fiske One-Ten Osmometer (Fiske Associates, Norwood, Mass., 02062) or an Advanced CRYOMATIC Osmometer, Model 3C.2 (Advanced Instruments, Norwood, Mass.). Determinations of Na^+, K^+ and Cl^− ion were carried out using ion specific electrodes in a Beckman SYNCHRON EL-ISE Electrolyte System analyzer. The urinary osmolality should increase proportionally. In the screening test, two rats were used for each compound. If the difference in the urine volume of the two rats was greater than 50%, a third rat was used.

Where [1] appears, read: 10 mg/kg oral, urine collected four hours.

Data on 26 molecules can be found in patent publication US6831079B1, “Vasopressin agonist formulation and process” (American Cyanamid Company, priority 1999, dated 2004).

Structures are written as SMILES.

Chain of Vasopressin V2 (Q00788 whole entry): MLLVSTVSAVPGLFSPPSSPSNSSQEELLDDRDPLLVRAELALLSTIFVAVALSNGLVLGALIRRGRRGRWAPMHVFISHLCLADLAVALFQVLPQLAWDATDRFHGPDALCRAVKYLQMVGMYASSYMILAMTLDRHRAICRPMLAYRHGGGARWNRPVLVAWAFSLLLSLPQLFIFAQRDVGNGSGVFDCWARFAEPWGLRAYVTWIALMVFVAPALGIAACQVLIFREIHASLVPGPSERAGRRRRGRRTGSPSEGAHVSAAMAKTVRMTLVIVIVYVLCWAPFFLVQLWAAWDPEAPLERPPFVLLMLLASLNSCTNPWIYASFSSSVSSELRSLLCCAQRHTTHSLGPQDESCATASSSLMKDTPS

Take `Cc1ccn(-c2ccc(C(=O)N3Cc4cccn4Cc4ccccc43)c(C(F)(F)F)c2)n1` [Example 2, [4-(3-Methyl-pyrazol-1-yl)-2-trifluoromethyl-phenyl](5H,11H-pyrrolo[2,1-c]-[1,4]benzodiazepin-10-yl)-methanone]: where the note is “1 mg/kg”, the “Osmolality (% Increase)” value is listed as 306% (1 mg/kg) and the “Urine Volume (% decrease)” value was 80% (1 mg/kg).

Take `Cc1cnn(-c2ccc(C(=O)N3Cc4cccn4Cc4ccccc43)c(C(F)(F)F)c2)c1` [Example 3, [4-(4-Methyl-pyrazol-1-yl)-2-trifluoromethyl-phenyl]-(5H,11H-pyrrolo[2,1-c][1,4]benzodiazepin-10-yl)-methanone]: the “Osmolality (% Increase)” value (10 mg/kg oral) is 240%. Besides, the “Urine Volume (% decrease)” value under setting [1] was 58%.

Take `O=C(c1ccc(-n2cccn2)cc1C(F)(F)F)N1Cc2cccn2Cc2ccccc21` [Example 4, (4-Pyrazol-1-yl-2-trifluoromethyl-phenyl)-(5H,11H-pyrrolo[2,1-c][1,4]benzodiazepin-10-yl)-methanone]: under “10 mg/kg oral”, the “Osmolality (% Increase)” value stood at 225%. Under setting [1], the “Urine Volume (% decrease)” value worked out at 57%.

For the molecule `O=C(c1ccc(-n2ccc(C3CC3)n2)cc1C(F)(F)F)N1Cc2cccn2Cc2ccccc21` [Example 5, [4-(3-Cyclopropyl-pyrazol-1-yl)-2-trifluoromethy-phenyl]-(5H,11H-pyrrolo[2,1-c][1,4]benzodiazepin-10-yl)-methanone], the “Osmolality (% Increase)” value (10 mg/kg oral) amounted to 231%. Also, the “Urine Volume (% decrease)” value under setting [1] was determined as 56%.

In the case of `Cc1cn(-c2ccc(C(=O)N3Cc4cccn4Cc4ccccc43)c(C(F)(F)F)c2)cn1` [Example 6, [4-(4-Methyl-imidazol-1-yl)-2-trifluoromethyl-phenyl]-(5H,11H-pyrrolo[2,1-c][1,4]benzodiazepin-10-yl)-methanone], the “Osmolality (% Increase)” value (10 mg/kg oral) came to 270%. Besides, the “Urine Volume (% decrease)” value under setting [1] came to 58%.

As for `O=C(c1ccc(-n2cncn2)cc1C(F)(F)F)N1Cc2cccn2Cc2ccccc21` [Example 7, (5H,11H-Pyrrolo[2,1-c][1,4]benzodiazepin-10-yl)-(4-[1,2,4]triazol-1-yl-2-trifluoromethylphenyl)-methanone], the “Osmolality (% Increase)” value (10 mg/kg oral) is listed as 137%. Further, under setting [1], the “Urine Volume (% decrease)” value is recorded as 13%.

In the case of `Cc1ccnn1-c1ccc(C(=O)N2Cc3cccn3Cc3ccccc32)c(Cl)c1` [Example 9B], where the note is “10 mg/kg oral”, the “Osmolality (% Increase)” value turned out to be 168%. Under setting [1], the “Urine Volume (% decrease)” value was 21%.

For the molecule `Cc1cnn(-c2ccc(C(=O)N3Cc4cccn4Cc4ccccc43)c(Cl)c2)c1` [Example 11], the “Osmolality (% Increase)” value (10 mg/kg oral) is 285%. In addition, the “Urine Volume (% decrease)” value under setting [1] is 70%.

In the case of `Cc1cn(-c2ccc(C(=O)N3Cc4cccn4Cc4ccccc43)c(Cl)c2)cn1` [Example 12, [2-Chloro-4-(4-methyl-imidazol-1-yl)-phenyl]-(5H,11H-pyrrolo[2,1-c][1,4]benzodiazepin-10-yl)-methanone], the “Osmolality (% Increase)” value (10 mg/kg oral) amounted to 330%. For the same molecule, the “Urine Volume (% decrease)” value under setting [1] was found to be 69%.

Regarding `O=C(c1ccc(-n2ccc(C(F)(F)F)n2)cc1Cl)N1Cc2cccn2Cc2ccccc21` [Example 13, [2-Chloro-4-(3-trifluoromethyl-pyrazol-1-yl)-phenyl]-(5H,11H-pyrrolo[2,1-c][1,4]benzodiazepin-10-yl)-methanone], the “Osmolality (% Increase)” value (10 mg/kg oral) amounted to 229%. Further, the “Urine Volume (% decrease)” value under setting [1] is 50%.

With `O=C(c1ccc(-n2cncn2)cc1Cl)N1Cc2cccn2Cc2ccccc21` [Example 14, [2-Chloro-4-(1,2,4-triazol-1-yl)-phenyl]-(5H,11H-pyrrolo[2,1-c][1,4]benzodiazepin-10-yl)-methanone], the “Osmolality (% Increase)” value (10 mg/kg oral) amounted to 406%. Further, the “Urine Volume (% decrease)” value under setting [1] worked out at 86%.

For the molecule `O=C(c1ccc(-n2cccc2)cc1Cl)N1Cc2cccn2Cc2ccccc21` [Example 15, (2-Chloro-4-pyrrol-1-yl-phenyl)-(5H,11H-pyrrolo[2,1-c][1,4]benzodiazepin-10-yl)-methanone], under “10 mg/kg oral”, the “Osmolality (% Increase)” value came out at 38%. Further, the “Urine Volume (% decrease)” value under setting [1] was determined as 47%.

As to `O=C(c1ccc(-n2cccn2)cc1Cl)N1Cc2cccn2Cc2ccccc21` [Example 16, (2-Chloro-4-pyrazol-1-yl-phenyl)(5H,11H-Pyrrolo[2,1-c][1,4]benzodiazepin-10-yl)-methanone], the “Osmolality (% Increase)” value (10 mg/kg oral) worked out at 400%. Also, under setting [1], the “Urine Volume (% decrease)” value stood at 88%.

For the molecule `Cc1ccn(-c2ncc(C(=O)N3Cc4cccn4Cc4ccccc43)c(C(F)(F)F)n2)n1` [Example 20, [2-(3-Methyl-pyrazol-1-yl)-4-trifluoromethyl-pyrimidin-5-yl]-(5H,11H-pyrrolo[2,1-c][1,4]benzodiazepin-10-yl)-methanone], under “1 mg/kg”, the “Osmolality (% Increase)” value is 152% (1 mg/kg) and the “Urine Volume (% decrease)” value is recorded as 25% (1 mg/kg).

Take `Cc1cnn(-c2ncc(C(=O)N3Cc4cccn4Cc4ccccc43)c(C(F)(F)F)n2)c1` [Example 21, [2-(4-Methyl-pyrazol-1-yl)-4-trifluoromethyl-pyrimidin-5-yl]-(5H,11H-pyrrolo[2,1-c][1,4]benzodiazepin-10-yl)-methanone]: where the note is “10 mg/kg oral”, the “Osmolality (% Increase)” value was found to be 181%. Further, under setting [1], the “Urine Volume (% decrease)” value was determined as 49%.

Regarding `CC(=O)c1ccc(C(=O)N2Cc3cccn3Cc3ccccc32)cc1` [Example 22, 1-[4-(5H,11H-Pyrrolo[2,1-c][1,4]benzodiazepine-10-carbonyl)-phenyl]-ethanone], the “Osmolality (% Increase)” value (10 mg/kg oral) was 322%. Besides, the “Urine Volume (% decrease)” value under setting [1] stood at 80%.

Take `O=C(c1ccc(-c2cc[nH]n2)cc1)N1Cc2cccn2Cc2ccccc21` [Example 24, [4-(1H-Pyrazol-3-yl)-phenyl]-(5H,11H-pyrrolo[2,1-c][1,4]benzodiazepin-10-yl)-methanone]: the “Osmolality (% Increase)” value (10 mg/kg oral) was 159%. Further, the “Urine Volume (% decrease)” value under setting [1] is given as 47%.

In the case of `Cn1ccc(-c2ccc(C(=O)N3Cc4cccn4Cc4ccccc43)cc2)n1` [Example 25, [4-(1-Methyl-1H-pyrazolyl-3-yl)-phenyl]-(5H,11H-pyrrolo[2,1-c][1,4]-benzodiazepin-10-yl)-methanone], the “Osmolality (% Increase)” value (10 mg/kg oral) is 979%. Also, the “Urine Volume (% decrease)” value under setting [1] worked out at 87%.

For `CCn1ccc(-c2ccc(C(=O)N3Cc4cccn4Cc4ccccc43)cc2)n1` [Example 26, [4-(1-Ethyl-1H-pyrazol-3-yl)-phenyl]-(5H,11H-pyrrolo[2,1-c][1,4]-benzodiazepin-10-yl)-methanone], the “Osmolality (% Increase)” value (10 mg/kg oral) is listed as 279%. Also, the “Urine Volume (% decrease)” value under setting [1] came to 54%.

Turning to `CCCn1ccc(-c2ccc(C(=O)N3Cc4cccn4Cc4ccccc43)cc2)n1` [Example 27, [4-(1-Propyl-1H-pyrazol-3-yl)-phenyl]-(5H,11H-pyrrolo[2,1-c][1,4]-benzodiazepin-10-yl)-methanone], under “10 mg/kg oral”, the “Osmolality (% Increase)” value is recorded as 183%. For the same molecule, the “Urine Volume (% decrease)” value under setting [1] worked out at 76%.

For the molecule `CCCCn1ccc(-c2ccc(C(=O)N3Cc4cccn4Cc4ccccc43)cc2)n1` [Example 28, [4-(1-Butyl-1H-pyrazol-3-yl)-phenyl]-(5H,11H-pyrrolo[2,1-c][1,4]-benzodiazepin-10-yl)-methanone], the “Osmolality (% Increase)” value (10 mg/kg oral) turned out to be 37%. Moreover, the “Urine Volume (% decrease)” value under setting [1] came out at 75%.

As to `COCn1ccc(-c2ccc(C(=O)N3Cc4cccn4Cc4ccccc43)cc2)n1` [Example 29, [4-(1-methoxymethyl-1H-pyrazol-3-yl)-phenyl]-(5H,11H-pyrrolo[2,1-c][1,4]-benzodiazepin-10-yl)-methanone], the “Osmolality (% Increase)” value (10 mg/kg oral) is 305%. Also, the “Urine Volume (% decrease)” value under setting [1] is 66%.

Consider `CCC(=O)n1ccc(-c2ccc(C(=O)N3Cc4cccn4Cc4ccccc43)cc2)n1` [Example 31, 1-{3-[4-(5H,11H-Pyrrolo[2,1-c][1,4]benzodiazepine-10-carbonyl)-phenyl]-pyrazol-1-yl}-propan-1-one], for which the “Osmolality (% Increase)” value (10 mg/kg oral) came to 298%. Further, the “Urine Volume (% decrease)” value under setting [1] came out at 72%.

Turning to `O=C(c1ccc(-c2ccn(C(=O)C3CC3)n2)cc1)N1Cc2cccn2Cc2ccccc21` [Example 32, [4-(1-Cyclopropanecarbonyl-1H-pyrazol-3-yl)-phenyl]-(5H,11H-pyrrolo[2,1-c][1,4]benzodiazepin-10-yl)-methanone], the “Osmolality (% Increase)” value (10 mg/kg oral) was 373%. Besides, the “Urine Volume (% decrease)” value under setting [1] is 77%.

As for `Cc1ccc(F)cc1C(=O)n1ccc(-c2ccc(C(=O)N3Cc4cccn4Cc4ccccc43)cc2)n1` [Example 35, {4-[1-(5-Fluoro-2-methyl-benzoyl)-1H-pyrazol-3-yl]-phenyl}-(5H,11H-pyrrolo[2,1-c][1,4]benzodiazepin-10-yl)-methanone], for the setting “10 mg/kg oral”, the “Osmolality (% Increase)” value was found to be 308%. The “Urine Volume (% decrease)” value under setting [1] was determined as 63%.

Regarding `O=C(c1ccc(-c2ccn(C(=O)Cc3ccc(Cl)cc3Cl)n2)cc1)N1Cc2cccn2Cc2ccccc21` [Example 39, 2-(2,4-Dichloro-phenyl)-1-{3-[4-(5H,11H-pyrrolo[2,1-c][1,4]benzodiazepine-10-carbonyl)-phenyl]-pyrazol-1-yl}-ethanone], the “Osmolality (% Increase)” value (10 mg/kg oral) came out at 253%. The “Urine Volume (% decrease)” value under setting [1] is given as 69%.
